The source of these data is US20260355199A1, “COMPOSITIONS AND METHODS FOR TREATING OR PREVENTING NONALCOHOLIC STEATOHEPATITIS (NASH), ANOREXIA, DEPRESSION, ENDOMETRIOSIS, AND OTHER DISEASES OR DISORDERS” (priority 2022, published 2026).

In assay [1] the test system is murine model of NASH. The assay is described as follows: High fat high sugar diet-induced murine model of NASH. It is filed as in vivo, mouse. The conditions noted are these: for fasting glucose / glucose tolerance: week 12; for plasma AST: week 13. The protocol:
As TET3-positive macrophages were also detected in human NASH (FIG. 24B), studies were performed to investigate whether depleting these macrophages would reduce NASH progression. Despite the high efficiency (up to 90%) of the LysM-cre strain in manipulating macrophages originated from myeloid progenitors including those in the peritoneal cavity, peripheral blood and bone marrow, only ~40% of tissue resident macrophages derived from yolk sac (e.g., those in the liver and the spleen red pulp) were affected (Shi et al., 2018, Methods Mol Biol, 1784:263-275). While the inefficacy of the LysM-cre strain in depleting tissue resident macrophages has precluded using the Mye-Tet3 ko mice, potential effects of Bobcat339 in steatosis, inflammation, and fibrosis were assessed using a high fat high sugar diet-induced murine model of NASH (Ishimoto et al., 2013, Hepatology, 58:1632-1643; Kroh et al., 2020, Gastroenterol Res Pract, 7347068; Baiges-Gaya et al., 2021, J Nutr Biochem, 89:108559). As shown schematically in FIG. 29A, mice were placed on a standard chow diet (CD) (control group) or a western diet with 10% sucrose in drinking water (WD) for 8 weeks to induce an early NASH phenotype (Kroh et al., 2020, Gastroenterol Res Pract, 7347068). Then, these mice were therapeutically dosed intravenously once a week from week 8 through week 11 with either 2.5 mg/kg Bobcat339 (treatment group) or vehicle (model group) for a total of 13 weeks on diets. Mice were euthanized following a 12 h overnight fasting, and plasma and liver were harvested for analyses.
Then, these mice were therapeutically dosed intravenously once a week from week 8 through week 11 with either 3 mg/kg Bobcat339 (treatment group) or vehicle (model group) for a total of 13 weeks on diets. At the end of the study, mice were euthanized following a 12 h overnight fasting, and plasma and liver were harvested for analyses.
Male C57BL/6J mice of 6-weeks old were randomly divided into three groups, with each containing 5 animals. The control group were fed a standard chow diet (CD). The model group and the treatment group were fed a western diet (WD) (40 kcal % fat, 20 kcal % fructose, and 2 kcal % cholesterol, Research Diets, D09100301) supplemented with 10% sucrose in drinking water provided ad libitum. In the treatment group, Bobcat339 administration was initiated following 8 weeks of WD by tail vein injection at 2.5 mg/kg body weight once a week for 4 weeks. The control group and the model group received vehicle (DMSO) tail vein injections. […] After a total of 13 weeks on diets, mice were sacrificed following a 12 h overnight fasting, and plasma and liver were harvested for analyses.
GTT were performed following 16 h overnight fasting. Each animal received an i.p. injection of 2 g/kg of glucose (Sigma-Aldrich, G5767) in sterile saline. Blood glucose concentrations were measured using Contour next blood glucose meter (Ascensia Diabetes Care) via tail vein bleeding at the indicated time points after injection.
These were assessed using Triglyceride Content Assay Kit (Solarbio, BC0625) and Hydroxyproline Assay Kit (Sigma-Aldrich, MAK008-1KT), respectively.
Mouse liver samples were collected and fixed at 4 °C with 4% of phosphate buffered paraformaldehyde for 24 h. Fixed tissue specimens were embedded in paraffin and cut into […] tissue sections for histopathological analysis. Tissue sections were stained with Hematoxylin-Eosin according to standard protocols. For Sirius Red/Fast Green staining, slides were deparaffinized by heating at 65 °C for 60 min, followed by xylene wash 3 times 5 min each. The slides were then rehydrated in 100%, 90%, 80% and 70% ethanol for 5 min each, followed by ddH2O wash 2 times 5 min each. Then they were incubated in 0.04% Fast Green (Sigma-Aldrich, F7258) in saturated [COMPOUND LEFT OUT] for 15 min, washed with distilled water and then incubated in 0.1% Fast Green and 0.08% Sirius Red (Sigma-Aldrich, 365546) in saturated [COMPOUND LEFT OUT] for 30 min. […]

Assay [2] concerns TET3. As to conditions: Lv et al., 2023; cited from earlier work.
Assay [3] relates to TET3 mRNA. Kind of assay: TET3 mRNA in THP-1 cells. It is filed as cell-based, human. As to conditions: THP-1, 10 μM, 24 h. The protocol: Bobcat339 Treatment of Cultured Cells Bobcat339 powder (Sigma-Aldrich, SML2611) was freshly dissolved in DMSO at a concentration of 5 mM and filtered through a 0.22 micron. Cells grown at a density of 80-90% were incubated in growth media with vehicle (DMSO) or Bobcat339 at a final concentration of 10 μM for 24 h, followed by RNA and protein extraction.
Total RNAs were extracted from cells using PureLink RNA Mini Kit. 0.5-1 μg total RNA was reverse transcribed to cDNA in a reaction volume of 20 μL using PrimeScript RT Reagent Kit. Real-time quantitative PCR was performed in a 15 μL reaction volume containing 0.5-1 μL of cDNA using SsoAdvanced Universal SYBR Green Supermix in a Bio-Rad iCycler. Gene expression levels were normalized against RPLP0.

Assay [4] relates to TET2. The conditions noted are these: cited from earlier work.
The test system of assay [5] is Cas9+ mice. Kind of assay: Post-fast refeeding study with leptin. It counts as in vivo, mouse. The conditions noted are these: leptin 5 mg/kg i.p. The protocol:
To assess leptin effects on suppression of hunger-induced appetite, female Cas9+ mice injected with AAV or AAV-sgTet3 bilaterally into the ARC were fasted overnight for 22 h. On the second day, mouse leptin (L3772-1MG, Sigma Aldrich) was administrated at 5 mg/kg intraperitoneally at 10:00 and pre-weighed food was placed in the cage and monitored for the following 24 h. For ChIP studies, Cas9+ mice injected with AAV or AAVsgTet3 bilaterally into the ARC were fasted overnight for 22 h. On the second day, saline or leptin (5 mg/kg) was administrated intraperitoneally at 10:00. Two hours later, ARCs were isolated for ChIP-qPCR analysis. To examine leptin-induced protein-protein interactions, Cas9+ mice were fasted overnight for 22 h. On the second day, leptin was administrated at 5 mg/kg intraperitoneally at 10:00, and ARCs were isolated 2 h later, followed by co-IP studies.

Usually minimal effective concentration stands for the smallest amount tested that counted as effective. As to `Nc1nc(=O)n(-c2cccc(-c3ccccc3)c2)cc1Cl` [Bobcat339, 4-Amino-1-[1,1′-biphenyl]-3-yl-5-chloro-2(1H)-pyrimidinone], in assay [1] (2.5 mg/kg i.v. once a week), the NAS score result was “reduced NAS scores”; the “TET3-expressing macrophages in liver” value is on record as “depleted after Bobcat339 treatment”; the fibrosis stage entry is “a significant reduction in both the fibrosis stage and the hydroxyproline content”; the “histological severity of steatosis and fibrosis” value was “significantly reduced the severity of both steatosis and fibrosis”. In assay [1] (2.5 mg/kg i.v. once a week), the liver hydroxyproline content result is “a significant reduction in both the fibrosis stage and the hydroxyproline content”; the liver triglycerides result is on record as “normalized liver triglycerides”; the liver-to-body weight ratio result is “decreased liver-to-body weight ratio”; the fasting glucose result was “a significant improvement”. In addition, in assay [1] (2.5 mg/kg i.v. once a week), the glucose tolerance result was “a significant improvement” and the “plasma AST” value was “normalized this marker”. Also, in assay [1] (3 mg/kg i.v. once a week), the “IL-1b and IL-6 in CD163+ macrophage-enriched areas of liver” value is “reduced the expression of IL-1b and IL-6”; the NAS score entry is “reduced NAS scores”; the “TET3-overexpressing CD163+ macrophages in liver” value is “significantly reduced after Bobcat339 treatment”; the fibrosis stage entry was “a significant reduction in both the fibrosis stage and hydroxyproline content”. Also, in assay [1] (3 mg/kg i.v. once a week), the “histological severity of steatosis and fibrosis” value was “significantly reduced the severity of both steatosis and fibrosis”; the hydroxyproline content entry is “a significant reduction in both the fibrosis stage and hydroxyproline content”; the liver triglycerides result is reported as “normalized liver triglycerides”; the liver-to-body weight ratio entry was “decreased liver-to-body weight ratio”. Besides, in assay [1] (3 mg/kg i.v. once a week), the fasting glucose entry is “a significant improvement”, the glucose tolerance entry is “a significant improvement” and the “plasma AST” value was “normalized this marker”. Further, the minimal effective concentration in assay [2] was 10 µM. Also, in assay [3], the “TET3 mRNA” value is “no significant difference in expression between the groups”. Further, in assay [4] (in the absence of contaminating copper (II)), the “inhibitory activity against TET2” value is reported as “negligible inhibitory activity”. Further, the “inhibition of enzymatic activity of TET2” value in assay [4] (initially reported) is given as “inhibit the enzymatic activity”.

Turning to “leptin: adipose hormone; mouse leptin L3772-1MG or human leptin L4146-1MG, Sigma Aldrich”, the hunger-induced appetite result in assay [5] (AAV control mice) is recorded as “suppressed hunger-induced appetite in control mice”; in assay [5] (TET3 knockdown (AAV-sgTet3) mice) it was “failed to do so in TET3 knockdown animals”.
